Assay results as given in patent US20100234306A1, “USE OF A PEPTIDE AS A THERAPEUTIC AGENT” (priority 2007, published 2010).
Where no end group is shown, it is not given here.

Columns and labels:
CEM-SS cells = experiment: Cytotoxicity (MTS cell viability) in the HIV-1 assay; settings: MTS, peptide 10 micrograms per ml
HIV-1IIIB = experiment: HIV-1 antiviral CPE assay in CEM-SS cells (MTS); settings: 6 days post-infection, peptide 10 micrograms per ml
in vitro = settings: human
Streptococcus pneumoniae = Streptococcus pneumoniae growth inhibition assay; format: cell-based; settings: Mueller-Hinton Broth, read visually, peptide 10 micrograms per ml
[1] = Cytotoxicity (MTS cell viability) in the HIV-1 assay; settings: human, CEM-SS cells
Pseudomonas aeruginosa = Pseudomonas aeruginosa growth inhibition assay; format: cell-based; settings: Mueller-Hinton Broth, read visually, peptide 10 micrograms per ml
MRSA = settings: Mueller-Hinton Broth, read visually, peptide 10 micrograms per ml
[2] = Cytotoxicity testing in MRC-5 cells (CellTiter 96); format: cell-based; settings: human, MRC-5 cells (embryonal lung fibroblasts), 6 days incubation, read-out: % Cell viability
Description: For cytotxicity testing, MRC-5 cells were seeded at 2,500 cells/well in 96 well plates using growth medium. […] The following day, peptide was added and tested in duplicates. After a 6 days incubation period, cell viability was measured using CellTiter 96 Solution (Promega). Plates were incubated for additional 4 hours at 37° C.

Row | Compound | % Cell viability (CEM-SS cells) [%] | % CPE reduction in HIV-1 infected CEM-SS cells (HIV-1IIIB) [%] | viability at 144 h, 10 micrograms per ml (in vitro) [%] | % inhibition (Streptococcus pneumoniae) [%] | viability at 10 micrograms per ml [1] [%] | % inhibition (Pseudomonas aeruginosa) [%] | % inhibition (MRSA) [%] | viability at 144 h [2] [%]
1 | Cc1cn([C@H]2C[C@H](N=[N+]=[N-])[C@@H](CO)O2)c(=O)[nH]c1=O [AZT] | 97 | 99 | – | – | – | – | – | –
2 | CC(C)(C)NC(=O)[C@@H]1CN(Cc2cccnc2)CCN1C[C@@H](O)C[C@@H](Cc1ccccc1)C(=O)N[C@H]1c2ccccc2C[C@H]1O [Indinavir] | 93 | – | – | – | – | – | – | –
3 | MQMKKVLDS-OH [AIP-1] | – | – | 100 | 0.0 | 100 | 0.0 | 0.0 | 100
